# Results: patent publication US20230257429A1, “PEPTIDE ADJUVANT FOR ITS THERAPEUTIC APPLICATIONS IN VIRAL AND TUMOUR VACCINE DEVELOPMENT AND CANCER IMMUNOTHERAPY AND AUTOIMMUNE DISEASE DIAGNOSIS AND TREATMENTS” (National University of Singapore, priority 2020, published 2023)
# Peptide text beside a SMILES is read from it.
# How the values were obtained:
# [1] = system: red blood cells (RBC); assay: Hemolytic assay; assay type: cell-based, human; conditions: 1 hr at 37° C., normalized to Triton X-100
# Description: Buffy coats were used as a source of red blood cells (RBC). Buffy coat (2 ml) was washed first in 10 ml of 150 mM NaCl and then washed twice in PBS (pH 7.4) by centrifugation for 5 min at 500 g. The cell pellets were resuspended in 10 ml of PBS as RBC stocks. The different peptides were diluted in PBS (100 μg/ml) and, in triplicates, the peptides were added to V-bottom 96-well plates at 10 μl/well. As controls, the same volumes of PBS or 20% (v/v) Triton X-100 were added. RBC were diluted 50 times in PBS and added to the plates at 190 μl/well. After incubation for 1 hr at 37° C., the plates were centrifuged for 5 min at 500 g. The supernatants (100 μl/well) were transferred to flat bottom plates and absorbance was measured at OD405. Data were normalized to the average OD405 readings obtained with 1% (v/v) Triton X-100 and presented as percentage hemolysis.
# [2] = system: monocytes; assay: Monocyte activation, TNFα and IL-1β ELISA; assay type: cell-based, human
# Description: (§1) Buffy coat fractions were obtained from healthy blood donors at the Singapore Health Sciences Authority, with Institutional ethics approval, and PBMC were isolated using Ficoll-Paque (GE Healthcare). To isolate monocytes, PBMC were re-suspended to 1×10^7 cells/ml in the RPMI medium contained 5% (v/v) BCS and incubated for 1 hr in T75 flasks (20 ml/flask). Monocytes that adhered were harvested. To culture macrophages and DC [Cao, W., et al., Blood 107: 2777-2785, (2006), incorporated herein by reference], monocytes were resuspended to 1×10^6 cells/ml and cultured in 6-well plates (2 ml/well). Macrophages were cultured by adding M-CSF to 20 ng/ml and DC were cultured with 20 ng/ml GM-CSF and 40 ng/ml IL-4. M-CSF, GM-CSF and IL-4 were obtained from R&D Systems (Mineapolis, Minn.). Cells were cultured for 6 days with half of the media being replenished every two days.
# […] Where TLR ligands were used to stimulate these cells, they were added to the media: LPS (500 ng/ml for DC and macrophages and 10 ng/ml for PMBC and monocytes, InvivoGen), flagellin (1 μg/ml, InvivoGen), lipoteichic acid (LTA, 10 μg/ml). Cell activation was determined by measuring TNFα and IL-1β in the culture media using ELISA kits (Invitrogen).
# [3] = system: PBMC; assay: Peptide binding to and penetration of PBMC, flow cytometry; assay type: cell-based, human; conditions: for cell surface binding of peptide at 37° C.: PBMC gated for monocytes, B cells, T cells; for cell surface binding of peptide at 37° C. / intracellular peptide at 37° C.: 1 hr; for intracellular peptide at 4° C.: B cells and T cells, permeabilized; for intracellular peptide at 37° C.: permeabilized cells
# Description: PBMC re-suspended in 100 μl macrophage serum free media (3×10^6/ml) were incubated with different peptides (200 μg/ml). PBMC (100 μl) were incubated with the peptides for 1 hr at 37° C. or 4° C. Cells were washed twice in 2% FBS/PBS and incubated with streptavidin-AF488 and Zombie (NIR) Fixable viability stain-APC-Cy7 for 30 min at 4° C. Cells were then fixed with 1% PFA for 30 min at room temperature and analysed using the Fortessa analyser (BD). In some experiments, PBMC were, after incubation with peptides, incubated with Zombie (NIR) Fixable viability stain (APC-Cy7) for 30 min at 4° C. Cells were then fixed and permeabilized with BD CYTOFIX/CYTOPERM™ Kit for 20 min at 4° C., and then incubated with streptavidin-AF488 for 30 min at 4° C. In some experiments, PBMC were, after incubation with the peptides, stained with fluorescent mouse antibodies specific for monocytes (CD14/BV711), T cells (CD3/PerCP-Cy5-5) and B cells (CD19/Pacific blue). Cells were then stained with Zombie (NIR) Fixable viability stain-APC-Cy7 and streptavin-AF488, with or without membrane permeabilization. In these experiments, monocytes, T cells and B cells were separately gated to detect surface peptide binding and intracellular peptide penetration.
# [4] = target: T1, TLR2 (Homo sapiens, UniProt O60603); assay: TLR2 binding assay (ELISA plate); parameters: purchased R&D Systems; conditions: TLR2 coated 2 μg/ml
# Target sequence in this assay (O60603 21-590 limits assumed): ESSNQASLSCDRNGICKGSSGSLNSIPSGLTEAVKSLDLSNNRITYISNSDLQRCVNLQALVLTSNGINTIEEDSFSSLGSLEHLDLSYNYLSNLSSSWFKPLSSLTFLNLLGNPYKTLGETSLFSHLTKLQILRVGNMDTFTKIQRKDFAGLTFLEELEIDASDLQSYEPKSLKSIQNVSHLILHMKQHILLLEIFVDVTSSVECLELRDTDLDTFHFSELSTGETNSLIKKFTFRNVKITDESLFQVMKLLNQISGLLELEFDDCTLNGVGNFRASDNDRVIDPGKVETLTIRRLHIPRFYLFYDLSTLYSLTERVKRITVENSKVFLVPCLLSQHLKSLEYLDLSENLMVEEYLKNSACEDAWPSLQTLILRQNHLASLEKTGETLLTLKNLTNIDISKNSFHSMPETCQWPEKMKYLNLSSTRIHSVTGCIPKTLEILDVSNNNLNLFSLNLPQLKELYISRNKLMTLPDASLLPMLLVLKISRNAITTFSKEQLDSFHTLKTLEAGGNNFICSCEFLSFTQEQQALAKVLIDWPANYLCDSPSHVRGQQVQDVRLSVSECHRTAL
# [5] = system: dendritic cells (DC) and macrophages; conditions: Wu et al. 2021; cited from earlier work
# [6] = system: monocytes; assay: TLR-blocking antibody pre-incubation before stimulation, TNFα; assay type: cell-based, human; conditions: monocytes pre-incubated with blocking antibody
# Description: In some experiments, cells were pre-treated with the MyD88 inhibitor st-2825 (MedChemExpress) or the Caspase-1 inhibitor Ac-YVAD (InvivoGen) for 1 hr before stimulation with TLR ligands or the purified nuclear proteins. In some other experiments, cells were pre-incubated for 1 hr with anti-TLR2, TLR4 and TLR5 antibodies (InvivoGen) before stimulation. The optimal st-2825 and Ac-YVAD concentrations were determined based on both their effects on cell viability and LPS-induced cytokine production. Cell viability was determined using the CELLTITER 96® AQueous One Solution Cell Proliferation (MTS) Assay (Promega).
# Therefore, TLR2 is clearly a sensing receptor for NCL as well as HMGB1. We then further analyzed the contribution of TLR2, TLR4 and TLR5 to NCL and HMGB1 recognition in their natural cellular contexts. Monocytes were pre-incubated with antibodies that were known to block each of these TLRs and then stimulated with the respective microbial ligands i.e. lipoteichoic acid (LTA), LPS and flagellin (FIG. 3E). […] NCL is a 710-amino acid protein and it is interesting to identify the specific NCL region that activates TLR2.
# [7] = target: T1, TLR2; assay: TLR and NF-κB-luciferase assay in 293T cells, TLR2/TLR1/TLR6/TLR10; assay type: cell-based; parameters: expressed in transfected cells; host or cells: human embryonic kidney 293T cells
# Description: TLR-mediated NF-κB activation was determined using a Dual Luciferase Reporter Assay (Promega), in which two luciferase reporter plasmids were used. […] Transfection was performed using the TurboFect Transfection Reagent (Thermo Fisher Scientific). After 24 hr, cells were harvested and cultured for 24 hr in 96-well plates coated with the purified proteins or, as controls, cultured in blank plates but stimulated with TLR ligands. Cells were lysed to measure both firefly and Renilla luciferase activities and, in each sample, the firefly activity was normalized to the Renilla luciferase activity and expressed as relative NF-κB activation.
# TLRs and, where it required, co-receptors were co-transfected in a total of 4 combinations, i.e. TLR2/1/6/10, TLR4/CD14/MD2, TLR5, or TLR3/7/8/9. Two luciferase expression vectors were used: one expresses the firefly luciferase under 5 repeats of the NF-κB gene promoter and the other expresses the Renilla luciferase under the constitutively active CMV promoter (FIG. 3A).
# Target sequence in this assay (O60603 21-784): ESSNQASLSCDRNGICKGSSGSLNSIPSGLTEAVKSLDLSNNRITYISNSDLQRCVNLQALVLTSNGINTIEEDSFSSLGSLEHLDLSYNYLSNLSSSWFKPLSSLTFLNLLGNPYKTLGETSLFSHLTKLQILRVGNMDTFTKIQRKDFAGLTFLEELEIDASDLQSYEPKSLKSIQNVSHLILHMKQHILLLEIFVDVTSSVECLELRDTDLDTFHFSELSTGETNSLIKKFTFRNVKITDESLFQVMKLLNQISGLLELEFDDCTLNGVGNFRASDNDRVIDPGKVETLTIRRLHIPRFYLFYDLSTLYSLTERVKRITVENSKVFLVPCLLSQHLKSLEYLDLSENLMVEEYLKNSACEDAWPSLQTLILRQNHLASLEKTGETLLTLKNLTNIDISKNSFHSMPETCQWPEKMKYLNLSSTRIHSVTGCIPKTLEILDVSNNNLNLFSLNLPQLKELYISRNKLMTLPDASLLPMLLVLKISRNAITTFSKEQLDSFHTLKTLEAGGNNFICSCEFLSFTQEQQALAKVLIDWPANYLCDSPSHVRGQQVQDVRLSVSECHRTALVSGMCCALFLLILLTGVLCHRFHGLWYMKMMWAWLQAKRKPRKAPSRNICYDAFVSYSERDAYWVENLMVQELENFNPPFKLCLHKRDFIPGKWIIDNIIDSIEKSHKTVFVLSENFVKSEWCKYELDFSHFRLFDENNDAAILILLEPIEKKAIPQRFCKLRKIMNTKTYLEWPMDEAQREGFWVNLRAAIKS
# [8] = system: PBMC; assay: PBMC activation, TNFα and IL-1β ELISA; assay type: cell-based, human; conditions: protein coated on plates, 24 hr, ELISA
# Description: as §1
# (§2) Purified proteins in PBS (30 μg/ml) were coated in triplicates in 96-well plates (50 μl/well) for 12 hr and PBMC (3×10^6 cells/ml), monocytes (1×10^6 cells/ml), macrophages (0.5×10^6 cells/ml) or DC (0.5×10^6 cells/ml) were re-suspended in macrophage serum-free medium containing penicillin and streptomycin and cultured for 24 hr in these plates at 100 μl/well. Where TLR ligands were used to stimulate these cells, they were added to the media: LPS (500 ng/ml for DC and macrophages and 10 ng/ml for PMBC and monocytes, InvivoGen), flagellin (1 μg/ml, InvivoGen), lipoteichic acid (LTA, 10 μg/ml). Cell activation was determined by measuring TNFα and IL-1β in the culture media using ELISA kits (Invitrogen).
# [9] = target: T2, TLR5 (Homo sapiens, UniProt O60602); assay: TLR and NF-κB-luciferase assay in 293T cells, TLR5; assay type: cell-based; conditions: protein-coated plates
# T2 construct: expressed in transfected cells; host or cells: human embryonic kidney 293T cells
# Description: (§3) TLR-mediated NF-κB activation was determined using a Dual Luciferase Reporter Assay (Promega), in which two luciferase reporter plasmids were used. One plasmid expresses the firefly luciferase under the regulation of inducible NF-κB promoter and the other plasmid expresses the Renilla luciferase under a constitutively active CMV promoter [Zhang, H., et al., FEBS Lett 532: 171-176 (2002)]. Besides these luciferase vectors, cells were co-transfected with vectors coding for human TLRs or, in the case of TLR4, co-transfected with CD14 and MD2 [according to Zhang, H., et al., J. FEBS Lett 532: 171-176 (2002), incorporated herein by reference]. Transfection was performed using the TurboFect Transfection Reagent (Thermo Fisher Scientific). After 24 hr, cells were harvested and cultured for 24 hr in 96-well plates coated with the purified proteins or, as controls, cultured in blank plates but stimulated with TLR ligands. Cells were lysed to measure both firefly and Renilla luciferase activities and, in each sample, the firefly activity was normalized to the Renilla luciferase activity and expressed as relative NF-κB activation. […]
# [10] = system: PBMC; assay: PBMC activation, TNFα and IL-1β ELISA; assay type: cell-based, human; conditions: 2.5, 5.0, 10, 14, 18 and 24 hr
# [11] = system: dendritic cells (DC) and macrophages; assay: DC and macrophage activation, cytokine ELISA; assay type: cell-based, human; conditions: protein coated on plates
# Description: as §1
# as §2, with “Where TLR ligands were used to stimulate these cells, they were added to the media: LPS (500 ng/ml for DC and macrophages and 10 ng/ml for PMBC and monocytes, InvivoGen), flagellin (1 μg/ml, InvivoGen), lipoteichic acid (LTA, 10 μg/ml).” left out
# [12] = target: T3, TLR4/CD14/MD2 (Homo sapiens, UniProt O00206); assay: TLR and NF-κB-luciferase assay in 293T cells, TLR4/CD14/MD2; assay type: cell-based; conditions: on top of high TLR4 autoactivation
# T3 construct: expressed in transfected cells; host or cells: human embryonic kidney 293T cells
# Description: as §3
# T2 sequence (O60602 21-858): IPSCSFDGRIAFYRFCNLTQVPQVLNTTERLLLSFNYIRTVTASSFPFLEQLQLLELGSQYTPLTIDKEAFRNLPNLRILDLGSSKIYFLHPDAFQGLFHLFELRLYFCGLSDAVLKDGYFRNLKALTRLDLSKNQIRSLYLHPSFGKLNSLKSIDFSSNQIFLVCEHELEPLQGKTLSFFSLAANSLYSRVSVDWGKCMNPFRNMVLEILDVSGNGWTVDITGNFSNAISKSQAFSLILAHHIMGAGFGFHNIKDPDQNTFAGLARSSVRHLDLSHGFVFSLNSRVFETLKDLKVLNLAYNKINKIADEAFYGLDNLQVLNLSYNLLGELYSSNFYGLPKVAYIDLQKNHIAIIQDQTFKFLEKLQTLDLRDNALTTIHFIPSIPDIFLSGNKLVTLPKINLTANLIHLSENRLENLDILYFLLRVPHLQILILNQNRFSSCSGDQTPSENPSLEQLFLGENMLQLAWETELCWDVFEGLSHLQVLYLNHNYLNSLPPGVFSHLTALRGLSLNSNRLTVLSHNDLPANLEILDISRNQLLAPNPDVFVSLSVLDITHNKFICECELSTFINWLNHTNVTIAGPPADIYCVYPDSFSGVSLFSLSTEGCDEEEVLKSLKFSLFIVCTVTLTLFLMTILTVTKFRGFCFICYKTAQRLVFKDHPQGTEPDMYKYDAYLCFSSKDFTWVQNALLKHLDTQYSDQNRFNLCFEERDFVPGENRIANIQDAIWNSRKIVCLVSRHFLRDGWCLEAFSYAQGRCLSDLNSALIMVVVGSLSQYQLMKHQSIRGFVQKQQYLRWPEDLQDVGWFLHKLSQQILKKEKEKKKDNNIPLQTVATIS
# T3 sequence (O00206 24-839): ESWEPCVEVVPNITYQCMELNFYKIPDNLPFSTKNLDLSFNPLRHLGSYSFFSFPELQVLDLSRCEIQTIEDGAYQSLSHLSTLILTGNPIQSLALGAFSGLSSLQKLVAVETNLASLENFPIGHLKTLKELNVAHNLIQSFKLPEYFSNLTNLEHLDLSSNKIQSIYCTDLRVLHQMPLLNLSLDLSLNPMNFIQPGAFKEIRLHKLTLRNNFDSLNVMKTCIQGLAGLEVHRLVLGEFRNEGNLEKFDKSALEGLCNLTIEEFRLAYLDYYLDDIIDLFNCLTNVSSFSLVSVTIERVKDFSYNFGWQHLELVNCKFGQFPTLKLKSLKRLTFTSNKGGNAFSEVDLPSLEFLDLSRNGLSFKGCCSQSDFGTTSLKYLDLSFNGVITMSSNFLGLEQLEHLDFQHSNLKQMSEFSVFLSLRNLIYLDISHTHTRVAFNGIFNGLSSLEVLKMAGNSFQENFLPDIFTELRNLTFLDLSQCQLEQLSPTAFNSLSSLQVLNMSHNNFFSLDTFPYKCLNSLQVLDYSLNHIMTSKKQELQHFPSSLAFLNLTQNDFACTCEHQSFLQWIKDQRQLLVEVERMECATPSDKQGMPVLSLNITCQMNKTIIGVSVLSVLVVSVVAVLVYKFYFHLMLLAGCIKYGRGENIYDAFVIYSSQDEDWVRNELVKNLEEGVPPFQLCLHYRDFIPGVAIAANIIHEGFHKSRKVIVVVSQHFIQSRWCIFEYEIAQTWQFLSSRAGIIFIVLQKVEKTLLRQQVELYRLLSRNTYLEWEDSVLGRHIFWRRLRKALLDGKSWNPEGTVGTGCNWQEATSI
# T3 sequence (Q9Y6Y9 19-160 partner): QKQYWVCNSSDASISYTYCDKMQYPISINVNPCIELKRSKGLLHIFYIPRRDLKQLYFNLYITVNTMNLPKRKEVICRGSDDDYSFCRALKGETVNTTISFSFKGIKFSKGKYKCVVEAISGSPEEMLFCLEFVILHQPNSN
compound,measurement,setting,value
"CC[C@H](C)[C@H](NC(=O)[C@H](CCCNC(=N)N)NC(=O)[C@H](CCCNC(=N)N)NC(=O)[C@H](CCCNC(=N)N)NC(=O)[C@H](CC(C)C)NC(=O)[C@@H](NC(=O)[C@@H](NC(=O)[C@H](CC(C)C)NC(=O)[C@@H](N)CC(C)C)[C@@H](C)CC)[C@@H](C)CC)C(=O)N[C@@H](CCCNC(=N)N)C(=O)N[C@@H](CCCCN)C(=O)N[C@@H](CCC(N)=O)C(=O)N[C@@H](C)C(=O)N[C@@H](Cc1c[nH]cn1)C(=O)N[C@@H](C)C(=O)N[C@@H](Cc1c[nH]cn1)C(=O)N[C@@H](CO)C(=O)N[C@@H](CCCCN)C(=O)O [CPP5, LLIILRRRIRKQAHAHSK] (H-LLIILRRRIRKQAHAHSK-OH)",haemolysis,[1],clearly haemolytic
GGFGGRGGGRGGRGGFGGRGRGGFGGRGGFRGGRGG (NCL-P2),alarmin activity compared with NCL-P1,[2]; monocytes,stronger alarmin activity than NCL-P1
same,"cytokine induction, soluble versus coated (immobilized) form","[2]; monocytes, 24 hr",induced more cytokines than immobilized peptides
same,cytokines induced by plate-coated peptide compared with NCL-P1,"[2]; monocytes, peptides coated on plates",induced more cytokines than NCL-P1
same,TNFα induced relative to NCL-P1,"[2]; monocytes, soluble peptide 40 μg/ml",approximately 10 fold
same,TNFα induction from monocytes (7 NCL peptides),"[2]; peptides 50 or 200 μg/ml, 24 hr",induced TNFα
same,TNFα induction from monocytes at lower concentrations,[2]; soluble peptide 10 and 20 μg/ml,induced little TNFα
same,TNFα induction from monocytes at higher concentrations,[2]; soluble peptide 80 and 160 μg/ml,strongly induced TNFα production
same,intracellular pool / cell penetration (CPP activity) in PBMC,"[3]; 1 hr at 4° C., fixed/permeabilized, streptavidin-AF488",accumulate intracellular pools
same,cell surface binding of peptide at 37° C.,[3],the majority of monocytes and smaller fractions of B and T cells
same,cell surface binding of peptide at 37° C.,[3]; listed as P2,surface binding was only prominent on PBMC and monocytes
same,intracellular peptide at 4° C.,[3]; monocytes,similarly high intracellular pools of the peptide
same,intracellular peptide at 4° C.,"[3]; monocytes, listed as P2",similarly high levels of intracellular P2 peptide irrespective of the temperature of incubation
same,surface-bound peptide at 4° C.,"[3]; monocytes, compared with 37° C.",increased significantly
same,intracellular peptide at 37° C.,[3],much higher level of the peptide was detected in all PBMC
same,intracellular peptide at 37° C.,[3]; listed as P2,similarly high levels of intracellular P2 peptide irrespective of the temperature of incubation
same,concentration at which saturated TLR2 binding was reached,[4],3.2 µg/mL
same,peptide binding to coated TLR2,[4]; biotin peptides at increasing concentrations,dose-dependent and saturable binding to TLR2
same,DC activation judged by TNFα induction,[5],activate DC
HMGB1: HMGB1 purified from T×NE as an alarmin control,TNFα and IL-1β production from monocytes,"[2]; protein coated on plates, 24 hr, ELISA",HMGB1 did
same,effect of TLR2 antibody on TNFα production induced by the protein,[6],significantly inhibited
same,effect of TLR4 antibody on TNFα production induced by the protein,[6],significantly inhibited
same,effect of TLR5 antibody on TNFα production induced by the protein,[6],significantly inhibited
same,TLR2 response when expressed without TLR1/TLR6/TLR10 or co-expressed with TLR5,[7],not significantly affected
same,NF-κB activation via TLR2/TLR1/TLR6/TLR10 combination,"[7]; protein-coated plates, 24 hr",prominent activation
same,TNFα and IL-1β production from PBMC,[8],HMGB1 did
same,NF-κB activation via TLR5,[9],consistently activated TLR5
same,kinetics of IL-1β induction from PBMC,[10],rapidly surged to plateau
same,kinetics of TNFα induction from PBMC,[10],linear early increase but a noticeable late surge
same,cytokine production from dendritic cells (DC) and macrophages,[11],also induced cytokine production
same,NF-κB activation via TLR4/CD14/MD2,[12],marginal but significant additional TLR4 activation
